Measured values from ChEMBL document CHEMBL1799917, “Isolation, sequencing, and structure-activity relationships of cyclotides” (J Nat Prod, 2010).
≈ marks a conversion by molar mass, not a printed value. Where a SMILES comes first, the peptide text is derived from it. Bridges are numbered along the chain shown (N, C = ends).

What was measured:
Kluyveromyces marxianus = experiment: Antimicrobial activity against Candida kefyr ATCC 37095; assay type: functional
CEM-SS (Homo sapiens) = experiment: Cytotoxicity against human CEM-SS cells
Staphylococcus aureus = experiment: Antimicrobial activity against Staphylococcus aureus ATCC 29213; assay type: functional
Candida tropicalis = experiment: Antimicrobial activity against Candida tropicalis ATCC 37097; assay type: functional
Proteus vulgaris = experiment: Antimicrobial activity against Proteus vulgaris ATCC 49132; assay type: functional
[1] = Hemolytic activity in human type A RBC; assay type: ADME, cell-based, Erythrocyte; conditions: human type A red blood cells, read-out: HD50 (the source's name)
[2] = test system: Human immunodeficiency virus 1; experiment: Antiviral activity against HIV1; assay type: functional, organism-based

SMILES	EC50 [2]	IC50 (CEM-SS (Homo sapiens))	further results
CC[C@H](C)[C@@H]1NC(=O)[C@@H]2CSSC[C@@H]3NC(=O)[C@H](C(C)C)NC(=O)[C@H](CCCCN)NC(=O)[C@H](CC(N)=O)NC(=O)[C@H](CCCCN)NC(=O)[C@@H]4CSSC[C@H](NC(=O)[C@H](CO)NC(=O)[C@H](CCC(=O)O)NC(=O)CNC(=O)[C@H](CSSC[C@H](NC(=O)CNC(=O)[C@H](CC(C)C)NC(=O)[C@H](C)NC(=O)[C@H](C)NC(=O)[C@H](CO)NC1=O)C(=O)N[C@@H](CO)C(=O)N4)NC(=O)[C@@H]1CCCN1C(=O)[C@H]([C@@H](C)CC)NC(=O)CNC(=O)[C@H](CC(N)=O)NC(=O)[C@H](CCCNC(=N)N)NC(=O)[C@H](Cc1ccc(O)cc1)NC3=O)C(=O)N[C@@H](C(C)C)C(=O)N[C@@H](Cc1c[nH]c3ccccc13)C(=O)N[C@@H]([C@@H](C)CC)C(=O)N1CCC[C@H]1C(=O)N2 [CIRCULIN A] (cyclo(AALGCSCKNKVCYRNGIPCGESCVWIPCIS); disulfide 5-19, 7-23, 12-28)	–	500 nM	MIC (Kluyveromyces marxianus): 18.6 µM (≈ 58.6 µg/mL); MIC (Staphylococcus aureus): 0.19 µM (≈ 0.599 µg/mL); MIC (Candida tropicalis): 19.4 µM (≈ 61.1 µg/mL); MIC (Proteus vulgaris): 54.6 µM (≈ 172 µg/mL); HC50 [1]: 1.02 mM
CC[C@H](C)[C@@H]1NC(=O)[C@@H]2CSSC[C@@H]3NC(=O)[C@H](C(C)C)NC(=O)[C@H](CCCCN)NC(=O)[C@H](CO)NC(=O)[C@H](CCCCN)NC(=O)[C@@H]4CSSC[C@H](NC(=O)[C@H](CO)NC(=O)[C@H](CCC(=O)O)NC(=O)CNC(=O)[C@H](CSSC[C@H](NC(=O)CNC(=O)[C@H](C)NC(=O)[C@H](C(C)C)NC(=O)[C@H](CO)NC(=O)[C@H]([C@@H](C)O)NC1=O)C(=O)N[C@@H](CO)C(=O)N4)NC(=O)[C@@H]1CCCN1C(=O)[C@H]([C@@H](C)CC)NC(=O)CNC(=O)[C@H](CC(N)=O)NC(=O)[C@H](CCCNC(=N)N)NC(=O)[C@H](Cc1ccc(O)cc1)NC3=O)C(=O)N[C@@H](C(C)C)C(=O)N[C@@H](Cc1ccccc1)C(=O)N[C@@H]([C@@H](C)CC)C(=O)N1CCC[C@H]1C(=O)N2 [CIRCULIN C] (cyclo(AGCSCKSKVCYRNGIPCGESCVFIPCITSV); disulfide 3-17, 5-21, 10-26)	–	500 nM	–
CC[C@H](C)[C@@H]1NC(=O)[C@H](CO)NC(=O)[C@H]([C@@H](C)O)NC(=O)[C@H](Cc2ccc(O)cc2)NC(=O)[C@@H]2CSSC[C@@H]3NC(=O)[C@H](C(C)C)NC(=O)[C@H](CCCCN)NC(=O)[C@H](CC(N)=O)NC(=O)[C@H](CCC(=O)O)NC(=O)[C@@H]4CSSC[C@H](NC(=O)[C@H](CO)NC(=O)[C@H](CCC(=O)O)NC(=O)CNC(=O)[C@H](CSSC[C@H](NC(=O)[C@H](CC(N)=O)NC(=O)[C@H](Cc5ccccc5)NC1=O)C(=O)N[C@@H](CCCCN)C(=O)N4)NC(=O)[C@@H]1CCCN1C(=O)[C@H]([C@@H](C)CC)NC(=O)[C@H](CCCCN)NC(=O)[C@H](CC(=O)O)NC(=O)[C@H](Cc1cnc[nH]1)NC(=O)[C@H](Cc1ccc(O)cc1)NC3=O)C(=O)N[C@@H](C(C)C)C(=O)N[C@@H](Cc1c[nH]c3ccccc13)C(=O)N[C@@H]([C@@H](C)CC)C(=O)N1CCC[C@H]1C(=O)N2 [CIRCULIN D] (cyclo(CENKVCYHDKIPCGESCVWIPCYTSIFNCK); disulfide 1-17, 6-22, 13-29)	–	500 nM	–
CC[C@H](C)[C@@H]1NC(=O)[C@H](CCCCN)NC(=O)[C@H](CC(=O)O)NC(=O)[C@H](Cc2cnc[nH]2)NC(=O)[C@H](Cc2ccc(O)cc2)NC(=O)[C@@H]2CSSC[C@@H]3NC(=O)[C@@H]4CCCN4C(=O)[C@H]([C@@H](C)CC)NC(=O)[C@H](Cc4c[nH]c5ccccc45)NC(=O)[C@H](C(C)C)NC(=O)[C@@H]4CSSC[C@H](NC(=O)[C@H](CCCCN)NC(=O)[C@H](CSSC[C@H](NC(=O)[C@@H]5CCCN5C1=O)C(=O)NCC(=O)N[C@@H](CCC(=O)O)C(=O)N[C@@H](CO)C(=O)N4)NC(=O)[C@H](CC(N)=O)NC(=O)[C@H](Cc1ccccc1)NC(=O)[C@H](C(C)C)NC(=O)[C@H](CO)NC(=O)[C@H]([C@@H](C)O)NC(=O)[C@H](CC(C)C)NC3=O)C(=O)N[C@@H](CCC(=O)O)C(=O)N[C@@H](CC(N)=O)C(=O)N[C@@H](CCCCN)C(=O)N[C@@H](C(C)C)C(=O)N2 [CIRCULIN E] (cyclo(CENKVCYHDKIPCGESCVWIPCLTSVFNCK); disulfide 1-17, 6-22, 13-29)	–	500 nM	–
CC[C@H](C)[C@@H]1NC(=O)[C@H](C)NC(=O)[C@H](C)NC(=O)[C@H](CO)NC(=O)[C@H]([C@@H](C)CC)NC(=O)[C@@H]2CSSC[C@@H]3NC(=O)[C@H](C(C)C)NC(=O)[C@H](CCCCN)NC(=O)[C@H](CC(N)=O)NC(=O)[C@H](CCCCN)NC(=O)[C@@H]4CSSC[C@H](NC(=O)[C@H](CO)NC(=O)[C@H](CCC(=O)O)NC(=O)CNC(=O)[C@H](CSSC[C@H](NC(=O)CNC1=O)C(=O)N[C@@H](CO)C(=O)N4)NC(=O)[C@@H]1CCCN1C(=O)[C@H]([C@@H](C)CC)NC(=O)[C@H](C)NC(=O)[C@H](CCCNC(=N)N)NC(=O)[C@H](Cc1ccc(O)cc1)NC3=O)C(=O)N[C@@H](C(C)C)C(=O)N[C@@H](Cc1c[nH]c3ccccc13)C(=O)N[C@@H]([C@@H](C)CC)C(=O)N1CCC[C@H]1C(=O)N2 [CIRCULIN F] (cyclo(AAIGCSCKNKVCYRAIPCGESCVWIPCIS); disulfide 5-18, 7-22, 12-27)	–	500 nM	–
CC(C)C[C@@H]1NC(=O)[C@H](C(C)C)NC(=O)[C@H](Cc2ccc(O)cc2)NC(=O)[C@@H]2CSSC[C@@H]3NC(=O)[C@H]([C@@H](C)O)NC(=O)[C@@H]4CSSC[C@H](NC(=O)[C@H](C)NC(=O)[C@H]([C@@H](C)O)NC(=O)CNC(=O)[C@H](CC(N)=O)NC(=O)[C@H](CCCCN)NC(=O)[C@H](Cc5ccccc5)NC(=O)[C@H](CSSC[C@H](NC(=O)[C@@H]5CCCN5C1=O)C(=O)N[C@@H](Cc1ccccc1)C(=O)N[C@@H]([C@@H](C)O)C(=O)N[C@@H](C(C)C)C(=O)NCC(=O)N4)NC(=O)[C@H](CCC(N)=O)NC(=O)[C@H](CO)NC(=O)[C@H](CO)NC(=O)[C@H]([C@@H](C)O)NC3=O)C(=O)NCC(=O)N[C@@H](CCC(=O)O)C(=O)N[C@@H](CO)C(=O)N2 [CYCLOVIOLIN B] (cyclo(ACGESCYVLPCFTVGCTCTSSQCFKNGT); disulfide 2-16, 6-18, 11-23)	130 nM	560 nM	–

More lines, main results first:

EC50 [2]	SMILES	IC50 (CEM-SS (Homo sapiens))	further results
130 nM	CC[C@H](C)[C@@H]1NC(=O)CNC(=O)[C@H](CC(N)=O)NC(=O)[C@H](CCCNC(=N)N)NC(=O)[C@H](Cc2ccc(O)cc2)NC(=O)[C@@H]2CSSC[C@@H]3NC(=O)[C@@H]4CCCN4C(=O)[C@H]([C@@H](C)CC)NC(=O)[C@H](Cc4ccccc4)NC(=O)[C@H](C(C)C)NC(=O)[C@@H]4CSSC[C@H](NC(=O)[C@H](CO)NC(=O)[C@H](CSSC[C@H](NC(=O)[C@@H]5CCCN5C1=O)C(=O)NCC(=O)N[C@@H](CCC(=O)O)C(=O)N[C@@H](CO)C(=O)N4)NC(=O)CNC(=O)[C@H](C)NC(=O)[C@H](C(C)C)NC(=O)[C@H]([C@@H](C)O)NC(=O)[C@H]([C@@H](C)O)NC(=O)[C@H](CC(C)C)NC3=O)C(=O)N[C@@H](CCCCN)C(=O)N[C@@H](CC(N)=O)C(=O)N[C@@H](CCCCN)C(=O)N[C@@H](C(C)C)C(=O)N2 [CYCLOVIOLIN C] (cyclo(AGCSCKNKVCYRNGIPCGESCVFIPCLTTV); disulfide 3-17, 5-21, 10-26)	560 nM	–
130 nM	CC[C@H](C)[C@@H]1NC(=O)[C@H](C)NC(=O)[C@H](C)NC(=O)[C@H](CO)NC(=O)[C@H]([C@@H](C)CC)NC(=O)[C@@H]2CSSC[C@@H]3NC(=O)[C@H](C(C)C)NC(=O)[C@H](CCCCN)NC(=O)[C@H](CC(N)=O)NC(=O)[C@H](CCCCN)NC(=O)[C@@H]4CSSC[C@H](NC(=O)[C@H](CO)NC(=O)[C@H](CCC(=O)O)NC(=O)CNC(=O)[C@H](CSSC[C@H](NC(=O)CNC1=O)C(=O)N[C@@H](CO)C(=O)N4)NC(=O)[C@@H]1CCCN1C(=O)[C@H](Cc1ccccc1)NC(=O)CNC(=O)[C@H](CC(N)=O)NC(=O)[C@H](CCCNC(=N)N)NC(=O)[C@H](Cc1ccc(O)cc1)NC3=O)C(=O)N[C@@H](C(C)C)C(=O)N[C@@H](Cc1ccccc1)C(=O)N[C@@H]([C@@H](C)CC)C(=O)N1CCC[C@H]1C(=O)N2 [CYCLOVIOLIN D] (cyclo(AAIGCSCKNKVCYRNGFPCGESCVFIPCIS); disulfide 5-19, 7-23, 12-28)	560 nM	–
130 nM	CC[C@H](C)[C@@H]1NC(=O)[C@H](C)NC(=O)[C@H](C)NC(=O)[C@H](CO)NC(=O)[C@H]([C@@H](C)CC)NC(=O)[C@@H]2CSSC[C@@H]3NC(=O)[C@H](C(C)C)NC(=O)[C@H](CCCCN)NC(=O)[C@H](CC(N)=O)NC(=O)[C@H](CCCCN)NC(=O)[C@@H]4CSSC[C@H](NC(=O)[C@H](CO)NC(=O)[C@H](CCC(=O)O)NC(=O)CNC(=O)[C@H](CSSC[C@H](NC(=O)CNC1=O)C(=O)N[C@@H](CO)C(=O)N4)NC(=O)[C@@H]1CCCN1C(=O)[C@H]([C@@H](C)CC)NC(=O)[C@H](C(C)C)NC(=O)CNC(=O)[C@H](CC(N)=O)NC(=O)[C@H](CCCNC(=N)N)NC(=O)[C@H](Cc1ccc(O)cc1)NC3=O)C(=O)N[C@@H](C(C)C)C(=O)N[C@@H](Cc1ccccc1)C(=O)N[C@@H]([C@@H](C)CC)C(=O)N1CCC[C@H]1C(=O)N2 [CYCLOVIOLN A] (cyclo(AAIGCSCKNKVCYRNGVIPCGESCVFIPCIS); disulfide 5-20, 7-24, 12-29)	560 nM	–
